# US9963442B2, “Pyridones as herbicides” (E I DU PONT DE NEMOURS AND COMPANY, priority 2014, dated 2018)
# Assays:
# Type in all cases: in vivo
# [1] = system: barnyardgrass (Echinochloa crus-galli); assay: Test B flooded paddy test; set-up: key: 0 = no effect, 100 = complete control; conditions: Flood, 250 g ai/ha applied to paddy water at 2-leaf stage; visually evaluated after 13 to 15 days; scale 0 (no effect) to 100 (complete control)
# In short: (§1)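 Paddy-water application at a 3 cm flood, young plants having two leaves. Water level maintained; greenhouse, 13–15 days; visual 0–100 control rating.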
# [2] = system: ducksalad (Heteranthera limosa); assay: Test B flooded paddy test; set-up: key: 0 = no effect, 100 = complete control; conditions: Flood, 250 g ai/ha applied to paddy water at 2-leaf stage; visually evaluated after 13 to 15 days; scale 0 (no effect) to 100 (complete control)
# In short: as §1
# [3] = system: Italian ryegrass (Lolium multiflorum); assay: Test C preemergence; conditions: scale 0 to 100, 0 is no effect, 100 is complete control
# From the text: (§2) Seeds of plant species selected from blackgrass (Alopecurus myosuroides), Italian ryegrass (Lolium multiflorum), winter wheat (Triticum aestivum), galium (catchweed bedstraw, Galium aparine), corn (Zea mays), large (Lg) crabgrass (Digitaria sanguinalis), giant foxtail (Setaria faberii), johnsongrass (Sorghum halepense), lambsquarters (Chenopodium album), morningglory (Ipomoea coccinea), yellow nutsedge (Cyperus esculentus), pigweed (Amaranthus retroflexus), ragweed (common ragweed, Ambrosia elatior), soybean (Glycine max), barnyardgrass (Echinochloa crus-galli), oilseed rape (Brassica napus), waterhemp (common waterhemp, Amaranthus rudis), and velvetleaf (Abutilon theophrasti) were planted into a blend of loam soil and sand and treated preemergence with test chemicals formulated in a non-phytotoxic solvent mixture which included a surfactant. At the same time, plants selected from these crop and weed species and also chickweed (common chickweed, Stellaria media), kochia (Kochia scoparia), and wild oat (Avena fatua), were planted in pots containing Sunshine Redi-Earth® planting medium comprising spaghnum peat moss, vermiculite, starter nutrients and dolomitic limestone and treated with postemergence applications of test chemicals formulated in the same manner. Plants ranged in height from 2 to 18 cm (1- to 4-leaf stage) for postemergence treatments. Treated plants and controls were maintained in a greenhouse for 13 to 15 days, after which time all species were compared to controls and visually evaluated. Plant response ratings, summarized in Table C, are based on a scale of 0 to 100 where 0 is no effect and 100 is complete control. A dash (-) response means no test result.
# [4] = system: barnyardgrass (Echinochloa crus-galli); assay: Test C preemergence; conditions: scale 0 to 100, 0 is no effect, 100 is complete control
# From the text: as §2
# [5] = system: blackgrass (Alopecurus myosuroides); assay: Test C preemergence; conditions: scale 0 to 100, 0 is no effect, 100 is complete control
# From the text: as §2
# corn (Zea mays) = assay: Test C preemergence; conditions: scale 0 to 100, 0 is no effect, 100 is complete control
# From the text: as §2
# [6] = system: galium (catchweed bedstraw, Galium aparine); assay: Test C preemergence; conditions: scale 0 to 100, 0 is no effect, 100 is complete control
# From the text: as §2
# [7] = system: giant foxtail (Setaria faberii); assay: Test C preemergence; conditions: scale 0 to 100, 0 is no effect, 100 is complete control
# From the text: as §2
# [8] = system: johnsongrass (Sorghum halepense); assay: Test C preemergence; conditions: scale 0 to 100, 0 is no effect, 100 is complete control
# From the text: as §2
# [9] = system: lambsquarters (Chenopodium album); assay: Test C preemergence; conditions: scale 0 to 100, 0 is no effect, 100 is complete control
# From the text: as §2
# [10] = system: large (Lg) crabgrass (Digitaria sanguinalis); assay: Test C preemergence; conditions: scale 0 to 100, 0 is no effect, 100 is complete control
# From the text: as §2
# [11] = system: morningglory (Ipomoea coccinea); assay: Test C preemergence; conditions: scale 0 to 100, 0 is no effect, 100 is complete control
# From the text: as §2
# [12] = system: oilseed rape (Brassica napus); assay: Test C preemergence; conditions: scale 0 to 100, 0 is no effect, 100 is complete control
# From the text: as §2
# [13] = system: pigweed (Amaranthus retroflexus); assay: Test C preemergence; conditions: scale 0 to 100, 0 is no effect, 100 is complete control
# From the text: as §2
# [14] = system: ragweed (common ragweed, Ambrosia elatior); assay: Test C preemergence; conditions: scale 0 to 100, 0 is no effect, 100 is complete control
# From the text: as §2
# soybean (Glycine max) = assay: Test C preemergence; conditions: scale 0 to 100, 0 is no effect, 100 is complete control
# From the text: as §2
# [15] = system: velvetleaf (Abutilon theophrasti); assay: Test C preemergence; conditions: scale 0 to 100, 0 is no effect, 100 is complete control
# From the text: as §2
# [16] = system: waterhemp (common waterhemp, Amaranthus rudis); assay: Test C preemergence; conditions: scale 0 to 100, 0 is no effect, 100 is complete control
# From the text: as §2
# [17] = system: winter wheat (Triticum aestivum); assay: Test C preemergence; conditions: scale 0 to 100, 0 is no effect, 100 is complete control
# From the text: as §2
# [18] = system: yellow nutsedge (Cyperus esculentus); assay: Test C preemergence; conditions: scale 0 to 100, 0 is no effect, 100 is complete control
# From the text: as §2
smiles,measurement,setting,value
O=c1cccc(Oc2ncc(Cl)cn2)n1-c1ccc(C(F)(F)F)cn1 [Compound 7],"Plant response rating, Barnyardgrass",[1],0
same,"Plant response rating, Ducksalad",[2],100
same,"Plant response rating, Ryegrass, Italian",[3]; 16 g ai/ha,0
same,"Plant response rating, Ryegrass, Italian",[3]; 31 g ai/ha,0
same,"Plant response rating, Ryegrass, Italian",[3]; 62 g ai/ha,10
same,"Plant response rating, Ryegrass, Italian",[3]; 125 g ai/ha,30
same,"Plant response rating, Barnyardgrass",[4]; 16 g ai/ha,5
same,"Plant response rating, Barnyardgrass",[4]; 31 g ai/ha,10
same,"Plant response rating, Barnyardgrass",[4]; 62 g ai/ha,35
same,"Plant response rating, Barnyardgrass",[4]; 125 g ai/ha,75
same,"Plant response rating, Blackgrass",[5]; 16 g ai/ha,0
same,"Plant response rating, Blackgrass",[5]; 31 g ai/ha,0
same,"Plant response rating, Blackgrass",[5]; 62 g ai/ha,30
same,"Plant response rating, Blackgrass",[5]; 125 g ai/ha,85
same,"Plant response rating, Corn",corn (Zea mays); 16 g ai/ha,0
same,"Plant response rating, Corn",corn (Zea mays); 31 g ai/ha,0
same,"Plant response rating, Corn",corn (Zea mays); 62 g ai/ha,10
same,"Plant response rating, Corn",corn (Zea mays); 125 g ai/ha,10
same,"Plant response rating, Galium",[6]; 16 g ai/ha,0
same,"Plant response rating, Galium",[6]; 31 g ai/ha,50
same,"Plant response rating, Galium",[6]; 62 g ai/ha,98
same,"Plant response rating, Galium",[6]; 125 g ai/ha,100
same,"Plant response rating, Foxtail, Giant",[7]; 16 g ai/ha,25
same,"Plant response rating, Foxtail, Giant",[7]; 31 g ai/ha,60
same,"Plant response rating, Foxtail, Giant",[7]; 62 g ai/ha,85
same,"Plant response rating, Foxtail, Giant",[7]; 125 g ai/ha,98
same,"Plant response rating, Johnsongrass",[8]; 16 g ai/ha,0
same,"Plant response rating, Johnsongrass",[8]; 31 g ai/ha,0
same,"Plant response rating, Johnsongrass",[8]; 62 g ai/ha,10
same,"Plant response rating, Johnsongrass",[8]; 125 g ai/ha,20
same,"Plant response rating, Lambsquarters",[9]; 16 g ai/ha,15
same,"Plant response rating, Lambsquarters",[9]; 31 g ai/ha,40
same,"Plant response rating, Lambsquarters",[9]; 62 g ai/ha,75
same,"Plant response rating, Lambsquarters",[9]; 125 g ai/ha,75
same,"Plant response rating, Crabgrass, Large",[10]; 16 g ai/ha,5
same,"Plant response rating, Crabgrass, Large",[10]; 31 g ai/ha,60
same,"Plant response rating, Crabgrass, Large",[10]; 62 g ai/ha,95
same,"Plant response rating, Crabgrass, Large",[10]; 125 g ai/ha,100
same,"Plant response rating, Morningglory",[11]; 16 g ai/ha,0
same,"Plant response rating, Morningglory",[11]; 31 g ai/ha,0
same,"Plant response rating, Morningglory",[11]; 62 g ai/ha,10
same,"Plant response rating, Morningglory",[11]; 125 g ai/ha,25
same,"Plant response rating, Oilseed Rape",[12]; 16 g ai/ha,5
same,"Plant response rating, Oilseed Rape",[12]; 31 g ai/ha,35
same,"Plant response rating, Oilseed Rape",[12]; 62 g ai/ha,85
same,"Plant response rating, Oilseed Rape",[12]; 125 g ai/ha,95
same,"Plant response rating, Pigweed",[13]; 16 g ai/ha,20
same,"Plant response rating, Pigweed",[13]; 31 g ai/ha,100
same,"Plant response rating, Pigweed",[13]; 62 g ai/ha,100
same,"Plant response rating, Pigweed",[13]; 125 g ai/ha,100
same,"Plant response rating, Ragweed",[14]; 16 g ai/ha,35
same,"Plant response rating, Ragweed",[14]; 31 g ai/ha,45
same,"Plant response rating, Ragweed",[14]; 62 g ai/ha,50
same,"Plant response rating, Ragweed",[14]; 125 g ai/ha,40
same,"Plant response rating, Soybean",soybean (Glycine max); 16 g ai/ha,10
same,"Plant response rating, Soybean",soybean (Glycine max); 62 g ai/ha,15
same,"Plant response rating, Soybean",soybean (Glycine max); 125 g ai/ha,50
same,"Plant response rating, Velvetleaf",[15]; 16 g ai/ha,5
same,"Plant response rating, Velvetleaf",[15]; 31 g ai/ha,10
same,"Plant response rating, Velvetleaf",[15]; 62 g ai/ha,35
same,"Plant response rating, Velvetleaf",[15]; 125 g ai/ha,55
same,"Plant response rating, Waterhemp",[16]; 16 g ai/ha,85
same,"Plant response rating, Waterhemp",[16]; 31 g ai/ha,85
same,"Plant response rating, Waterhemp",[16]; 62 g ai/ha,100
same,"Plant response rating, Waterhemp",[16]; 125 g ai/ha,100
same,"Plant response rating, Wheat",[17]; 16 g ai/ha,0
same,"Plant response rating, Wheat",[17]; 31 g ai/ha,0
same,"Plant response rating, Wheat",[17]; 62 g ai/ha,0
same,"Plant response rating, Wheat",[17]; 125 g ai/ha,0
same,"Plant response rating, Nutsedge, Yellow",[18]; 16 g ai/ha,0
same,"Plant response rating, Nutsedge, Yellow",[18]; 31 g ai/ha,0
same,"Plant response rating, Nutsedge, Yellow",[18]; 62 g ai/ha,0
same,"Plant response rating, Nutsedge, Yellow",[18]; 125 g ai/ha,15
